According to patent US9573954B2, “Pyrazolopyrimidine compounds” (University Health Network, priority 2012, dated 2017):
Like-named read-outs stand apart in the source and are kept apart here.

Columns and labels:
[1] = test system: breast cancer cells (MDA-MB-468); experiment: Cancer cell line growth inhibition, Sulforhodamine B assay, MDA-MB-468; type: cell-based; settings: Homo sapiens, MDA-MB-468, 120 h, Table 1; MDA-MB-468, 5 days, SRB; read-out: Cancer Cell Line GI50 Range MDA-MB-468
Outline: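 Sulforhodamine B staining (TCA-fixed, read at 570 nm) estimates cell mass after 5-day compound treatment of MDA-MB-468 cells, final concentrations 10 nM to 50 μM in 10% FBS DMEM. GI50 derived from growth inhibition versus DMSO controls.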

[2] = test system: Colon 12 tumor initiating cells; experiment: Tumor-initiating cell growth inhibition, Alamar Blue assay, colon TICs; type: cell-based; settings: 216 h; Table 1; colon TICs, 9 days, Alamar Blue; read-out: Tumor Initiating Cell GI50 Range Colon 12
Outline: (§1)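 Colon TICs (4,000/well, non-TC plates) and ovarian TICs (1,000/well, TC plates) kept in serum-free DMEM:F12 with B-27, heparin, bFGF and EGF. Compound added after 24 h at 0.1% DMSO, then 9 days (colon) or 6 days (ovarian) at 37° C. GI50 from Alamar Blue fluorescence (ex 544/em 590) after 4 h.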

[3] = test system: ovarian cancer cells (PA-1); experiment: Cancer cell line growth inhibition, Sulforhodamine B assay, PA-1; type: cell-based; settings: 120 h, PA-1, 5 days, SRB, read-out: Cancer Cell Line GI50 Range PA-1
Description: (§2) Breast cancer cells (MDA-MB-231 and MDA-MB-468), colon cancer cells (HCT116) and ovarian cancer cells (PA-1 and OVCAR-3) were seeded (1000 to 4000 in 80 μl per well depending on the cell growth rate) into 96 well plates 24 hours before compound overlay. Compounds were prepared as 10 mM stock solutions in 100% DMSO which were diluted with DMEM (Dulbecco's Modified Eagle's Medium) cell growth Medium (Invitrogen, Burlington, ON, Canada) containing 10% FBS (Fetal Bovine Serum) to concentrations ranging from 50 nM to 250 μM. Aliquots (20 μl) from each concentration were overlaid to 80 μl of the pre-seeded cells in the 96 well plates to make final concentrations of 10 nM to 50 μM. The cells were cultured for 5 days before the Sulforhodamine B assay (SRB) was performed to determine the compound's cell growth inhibition activity.
(§3) Sulforhodamine B (purchased from Sigma, Oakville, ON, Canada) is a water-soluble dye that binds to the basic amino acids of the cellular proteins. Thus, colorimetric measurement of the bound dye provides an estimate of the total protein mass that is related to the cell number. the cells are fixed in situ by gently aspirating off the culture media and adding 50 μl ice cold 10% Trichloroacetic Acid (TCA) per well and incubate at 4° C. for 30-60 min, The plates are washed with H2O five times and allowed to air dry for 5 min. Addition of 50 μl 0.4% (w/v) SRB solution in 1% (v/v) acetic acid to each well and incubation for 30 min at RT completes the staining reaction. Following staining, plates are washed four times with 1% acetic acid to remove unbound dye and then allowed to air dry for 5 min. The stain is solubilized with 100 μl of 10 mM Tris pH 10.5 per well. Absorbance is read at 570 nm.
(§4) The percentage (%) of relative growth inhibition was calculated by comparing to DMSO treated only cells (100%). GI50's were determined for compounds with cytotoxic activity. The GI50 was calculated using GraphPad PRISM software (GraphPad Software, Inc., San Diego, Calif., USA).
In Table 1 below, GI50 value ranges for compound examples against breast cancer cell lines (MDA-MB-468), colon cancer cell lines (HCT116) and ovarian cancer cell lines (PA-1) are given.
(§5) In Table 2 below, GI50 value ranges for compound examples against breast cancer cell lines (MDA-MB-231), colon cancer cell lines (HCT116) and ovarian cancer cell lines (PA-1) are given.

[4] = test system: colon cancer cells (HCT116); experiment: Cancer cell line growth inhibition, Sulforhodamine B assay, HCT116; type: cell-based; settings: Homo sapiens, HCT-116, 120 h, HCT116, 5 days, SRB, read-out: Cancer Cell Line GI50 Range HCT116
Outline: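 GI50 is calculated from growth inhibition relative to DMSO controls, using TCA-fixed, SRB-stained protein mass read at 570 nm. Compound, 10 nM–50 μM final in 10% FBS DMEM, was applied for 5 days to HCT116 cells that had been plated 24 h before at 1000–4000/well.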

[5] = test system: Ovarian 2393A tumor initiating cells; experiment: Tumor-initiating cell growth inhibition, Alamar Blue assay, ovarian TICs; type: cell-based; settings: 144 h; Table 1; ovarian TICs, 6 days, Alamar Blue; read-out: Tumor Initiating Cell GI50 Range Ovarian 2393A
Outline: as §1

human TTK = biological target: T1, human TTK (Homo sapiens, UniProt P33981); experiment: TTK inhibition assay (indirect ELISA); type: biochemical; settings: 16 μM ATP (asterisk), read-out: TTK IC50 Range
T1 construct: Active TTK was purchased from Invitrogen as an amino terminal GST fusion of full length human TTK; purchased Invitrogen
T1 sequence (P33981 1-857): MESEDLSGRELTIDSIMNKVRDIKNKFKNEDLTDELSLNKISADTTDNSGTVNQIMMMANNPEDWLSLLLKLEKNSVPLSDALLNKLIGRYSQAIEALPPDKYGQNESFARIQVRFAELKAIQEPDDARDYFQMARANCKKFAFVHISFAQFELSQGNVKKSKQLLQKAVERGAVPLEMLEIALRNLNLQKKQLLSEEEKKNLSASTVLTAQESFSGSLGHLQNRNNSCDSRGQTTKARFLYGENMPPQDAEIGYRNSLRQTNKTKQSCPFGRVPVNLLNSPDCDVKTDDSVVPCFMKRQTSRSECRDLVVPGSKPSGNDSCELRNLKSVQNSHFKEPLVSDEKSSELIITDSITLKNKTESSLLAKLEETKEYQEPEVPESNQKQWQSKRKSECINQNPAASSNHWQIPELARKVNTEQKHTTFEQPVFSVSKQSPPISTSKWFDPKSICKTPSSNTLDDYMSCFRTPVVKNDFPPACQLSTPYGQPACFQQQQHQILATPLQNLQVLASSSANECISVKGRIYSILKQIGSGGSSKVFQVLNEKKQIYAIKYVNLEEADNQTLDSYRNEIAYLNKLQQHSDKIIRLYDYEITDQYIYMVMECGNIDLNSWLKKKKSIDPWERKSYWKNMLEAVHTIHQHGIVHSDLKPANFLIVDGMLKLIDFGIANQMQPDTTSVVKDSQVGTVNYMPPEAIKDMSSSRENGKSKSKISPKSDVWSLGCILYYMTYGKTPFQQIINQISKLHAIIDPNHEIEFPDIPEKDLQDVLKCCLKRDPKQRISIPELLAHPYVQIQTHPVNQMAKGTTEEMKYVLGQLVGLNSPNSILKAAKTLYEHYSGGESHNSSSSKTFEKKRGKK
Outline: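 Activity detected by indirect ELISA after compounds sat with full-length GST-TTK for 5 min prior to starting the reaction with ATP. IC50 came from a four-parameter logistic curve of % inhibition, calculated against background and uninhibited control wells.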

[6] = test system: breast cancer cells (MDA-MB-231); experiment: Cancer cell line growth inhibition, Sulforhodamine B assay, MDA-MB-231; type: cell-based; settings: Homo sapiens, 120 h; Table 2; MDA-MB-231, 5 days, SRB; read-out: Cancer Cell Line GI50 Range MDA-MB-231
Description: as §2, §3, §4, §5

O=C(NC1CC1)c1ccc(-c2cnn3c(NCC4CCOCC4)nc(OC4CCCC4)nc23)cc1Cl [Example A5, 2-chloro-4-(2-(cyclopentyloxy)-4-(((tetrahydro-2H-pyran-4-yl)methyl)amino)pyrazolo[1,5-a][1,3,5]triazin-8-yl)-N-cyclopropylbenzamide]
GI50 [1]: > 500 nM
GI50 [2]: 100 to 500 nM
GI50 ([3]; Table 1): 100 to 500 nM
GI50 ([4]; Table 1): 100 to 500 nM
GI50 [5]: > 500 nM
IC50 (human TTK; Table 1): < 100 nM

O=C(NC1CC1)c1ccc(-c2cnn3c(NCC4CCOCC4)nc(N4CCOCC4)nc23)cc1Cl [Example A6, 2-chloro-N-cyclopropyl-4-(2-morpholino-4-(((tetrahydro-2H-pyran-4-yl)methyl)amino)pyrazolo[1,5-a][1,3,5]triazin-8-yl)benzamide]
GI50 [1]: > 500 nM
GI50 [2]: 100 to 500 nM
GI50 ([3]; Table 1): ≤ 100 nM
GI50 ([4]; Table 1): 100 to 500 nM
GI50 [5]: 100 to 500 nM
IC50 (human TTK; Table 1): < 100 nM

O=C(NC1CC1)c1ccc(-c2cnn3c(NCCN4CCOCC4)nc(Oc4ccccc4)nc23)cc1 [Example A7, N-cyclopropyl-4-(4-((2-morpholinoethyl)amino)-2-phenoxypyrazolo[1,5-a][1,3,5]triazin-8-yl)benzamide]
GI50 [1]: > 500 nM
GI50 [2]: > 500 nM
GI50 ([3]; Table 1): 100 to 500 nM
GI50 ([4]; Table 1): > 500 nM
GI50 [5]: > 500 nM
IC50 (human TTK; Table 1): < 100 nM

O=C(NC1CC1)c1ccc(-c2cnn3c(NCC4CCOCC4)nc(OC4CCOCC4)nc23)cc1Cl [Example A14, 2-chloro-N-cyclopropyl-4-(4-(((tetrahydro-2H-pyran-4-yl)methyl)amino)-2-((tetrahydro-2H-pyran-4-yl)oxy)pyrazolo[1,5-a][1,3,5]triazin-8-yl)benzamide]
GI50 [1]: > 500 nM
GI50 [2]: > 500 nM
GI50 ([3]; Table 1): 100 to 500 nM
GI50 ([4]; Table 1): 100 to 500 nM
GI50 [5]: > 500 nM
IC50 (human TTK; Table 1): < 100 nM

O=C(NC1CC1)c1ccc(-c2cnn3c(NCC4CCOCC4)nc(NC4CCCC4)nc23)cc1 [Example A15, 4-(2-(cyclopentylamino)-4-(((tetrahydro-2H-pyran-4-yl)methyl)amino)pyrazolo[1,5-a][1,3,5]triazin-8-yl)-N-cyclopropylbenzamide]
GI50 [1]: > 500 nM
GI50 [2]: 100 to 500 nM
GI50 ([3]; Table 1): 100 to 500 nM
GI50 ([4]; Table 1): 100 to 500 nM
GI50 [5]: 100 to 500 nM
IC50 (human TTK; Table 1): < 100 nM

Cc1cc(-c2cnn3c(NCC4CCOCC4)cc(NCC(C)(C)O)nc23)ccc1C(=O)NC1CC1 [Example B10, N-cyclopropyl-4-(5-((2-hydroxy-2-methylpropyl)amino)-7-(((tetrahydro-2H-pyran-4-yl)methyl)amino)pyrazolo[1,5-a]pyrimidin-3-yl)-2-methylbenzamide]
GI50 ([3]; Table 2): 100 to 500 nM
GI50 ([4]; Table 2): 100 to 500 nM
IC50 (human TTK; Table 2): < 100 nM
GI50 [6]: > 500 nM

Cc1cc(-c2cnn3c(NCC4CCOCC4)cc(N4CCOCC4)nc23)ccc1C(=O)NC1CC1 [Example B11, N-cyclopropyl-2-methyl-4-(5-morpholino-7-(((tetrahydro-2H-pyran-4-yl)methyl)amino)pyrazolo[1,5-a]pyrimidin-3-yl)benzamide]
GI50 ([3]; Table 2): 100 to 500 nM
GI50 ([4]; Table 2): 100 to 500 nM
IC50 (human TTK; Table 2): < 100 nM
GI50 [6]: 100 to 500 nM

Cc1cc(-c2cnn3c(NCC4CCOCC4)cc(OC4CCCC4)nc23)ccc1C(=O)NC1CC1 [Example B21, 4-(5-(cyclopentyloxy)-7-(((tetrahydro-2H-pyran-4-yl)methyl)amino)pyrazolo[1,5-a]pyrimidin-3-yl)-N-cyclopropyl-2-methylbenzamide]
GI50 ([3]; Table 2): ≤ 100 nM
GI50 ([4]; Table 2): ≤ 100 nM
IC50 (human TTK; Table 2): < 100 nM
GI50 [6]: 100 to 500 nM

Cc1cc(-c2cnn3c(NCCC4CCOCC4)cc(Oc4cccnc4)nc23)ccc1C(=O)NC1CC1 [Example B22, N-cyclopropyl-2-methyl-4-(5-(pyridin-3-yloxy)-7-((2-(tetrahydro-2H-pyran-4-yl)ethyl)amino)pyrazolo[1,5-a]pyrimidin-3-yl)benzamide]
GI50 ([3]; Table 2): ≤ 100 nM
GI50 ([4]; Table 2): ≤ 100 nM
IC50 (human TTK; Table 2): < 100 nM
GI50 [6]: ≤ 100 nM

Cc1cc(-c2cnn3c(NCC4CCOCC4)cc(OC4CCCCC4)nc23)ccc1C(=O)NC1CC1 [Example B23, 4-(5-(cyclohexyloxy)-7-(((tetrahydro-2H-pyran-4-yl)methyl)amino)pyrazolo[1,5-a]pyrimidin-3-yl)-N-cyclopropyl-2-methylbenzamide]
GI50 ([3]; Table 2): 100 to 500 nM
GI50 ([4]; Table 2): 100 to 500 nM
IC50 (human TTK; Table 2): < 100 nM
GI50 [6]: 100 to 500 nM

Cc1cc(-c2cnn3c(NCC4CCOCC4)cc(NC4CCCCC4)nc23)ccc1C(=O)NC1CC1 [Example B24, 4-(5-(cyclohexylamino)-7-(((tetrahydro-2H-pyran-4-yl)methyl)amino)pyrazolo[1,5-a]pyrimidin-3-yl)-N-cyclopropyl-2-methylbenzamide]
GI50 ([3]; Table 2): ≤ 100 nM
GI50 ([4]; Table 2): ≤ 100 nM
IC50 (human TTK; Table 2): < 100 nM
GI50 [6]: ≤ 100 nM

Cc1cc(-c2cnn3c(NCC(C)C)cc(Oc4cccnc4)nc23)ccc1C(=O)NC1CC1 [Example B25, N-cyclopropyl-4-(7-(isobutylamino)-5-(pyridin-3-yloxy)pyrazolo[1,5-a]pyrimidin-3-yl)-2-methylbenzamide]
GI50 ([3]; Table 2): ≤ 100 nM
GI50 ([4]; Table 2): ≤ 100 nM
IC50 (human TTK; Table 2): < 100 nM
GI50 [6]: ≤ 100 nM
